{
  "source": "paper PMC7316778",
  "about": "(Nature Communications, 2020)",
  "experiment_in_all_cases": "SelectScreen kinase assay",
  "key": {"[1]": {"target": "MAPK3 (ERK1) (Homo sapiens, UniProt P27361)", "sequence (P27361 whole entry)": "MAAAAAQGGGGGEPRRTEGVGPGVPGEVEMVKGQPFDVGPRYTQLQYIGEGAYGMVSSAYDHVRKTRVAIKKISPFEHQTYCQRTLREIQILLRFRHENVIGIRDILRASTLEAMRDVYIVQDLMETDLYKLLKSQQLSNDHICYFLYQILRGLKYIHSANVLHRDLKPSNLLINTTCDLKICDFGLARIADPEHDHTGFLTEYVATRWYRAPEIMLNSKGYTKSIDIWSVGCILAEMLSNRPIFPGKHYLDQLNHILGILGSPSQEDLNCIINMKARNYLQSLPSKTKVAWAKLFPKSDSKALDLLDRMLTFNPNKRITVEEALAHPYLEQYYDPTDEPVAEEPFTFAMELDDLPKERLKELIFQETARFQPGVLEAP", "description": "(§1) Selectivity profiling assays were performed by the Invitrogen SelectScreen™ Services. […] The concentration of ATP was selected to be equal to the KM, unless indicated otherwise."}, "[2]": {"target": "NEK1 (Homo sapiens, UniProt Q96PY6)", "description": "as §1"}, "[3]": {"target": "T1, DCAMKL2 (DCK2) (Homo sapiens, UniProt Q8N568)", "T1 sequence (Q8N568 1-766)": "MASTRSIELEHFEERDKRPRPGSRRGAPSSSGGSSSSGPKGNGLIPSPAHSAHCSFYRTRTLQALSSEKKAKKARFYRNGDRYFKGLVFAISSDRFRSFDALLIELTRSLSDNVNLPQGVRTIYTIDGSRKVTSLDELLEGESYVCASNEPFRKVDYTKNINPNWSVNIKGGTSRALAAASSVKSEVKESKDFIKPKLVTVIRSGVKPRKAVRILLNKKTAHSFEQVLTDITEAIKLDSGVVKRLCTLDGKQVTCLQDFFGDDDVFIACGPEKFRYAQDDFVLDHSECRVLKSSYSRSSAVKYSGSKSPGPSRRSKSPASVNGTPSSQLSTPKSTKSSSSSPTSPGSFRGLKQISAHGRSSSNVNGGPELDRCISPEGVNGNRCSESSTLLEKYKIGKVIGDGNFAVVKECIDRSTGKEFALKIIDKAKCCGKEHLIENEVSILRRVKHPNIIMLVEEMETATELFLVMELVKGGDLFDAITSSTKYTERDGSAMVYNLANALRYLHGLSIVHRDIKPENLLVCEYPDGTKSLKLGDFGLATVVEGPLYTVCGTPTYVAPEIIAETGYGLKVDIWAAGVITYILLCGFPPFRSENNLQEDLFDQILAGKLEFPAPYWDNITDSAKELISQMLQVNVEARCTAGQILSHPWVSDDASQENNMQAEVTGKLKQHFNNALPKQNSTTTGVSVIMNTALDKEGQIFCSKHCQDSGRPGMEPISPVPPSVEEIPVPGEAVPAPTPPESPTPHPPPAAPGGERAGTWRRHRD", "description": "as §1"}, "[4]": {"target": "JAK2 (Homo sapiens, UniProt O60674)", "details": "1 μM WEL028, 1 h preincubation", "description": "as §1"}, "[5]": {"target": "DNA-PK (Homo sapiens, UniProt P78527)", "description": "as §1"}, "[6]": {"target": "T2, TTK (Homo sapiens, UniProt P33981)", "T2 sequence (P33981 1-857)": "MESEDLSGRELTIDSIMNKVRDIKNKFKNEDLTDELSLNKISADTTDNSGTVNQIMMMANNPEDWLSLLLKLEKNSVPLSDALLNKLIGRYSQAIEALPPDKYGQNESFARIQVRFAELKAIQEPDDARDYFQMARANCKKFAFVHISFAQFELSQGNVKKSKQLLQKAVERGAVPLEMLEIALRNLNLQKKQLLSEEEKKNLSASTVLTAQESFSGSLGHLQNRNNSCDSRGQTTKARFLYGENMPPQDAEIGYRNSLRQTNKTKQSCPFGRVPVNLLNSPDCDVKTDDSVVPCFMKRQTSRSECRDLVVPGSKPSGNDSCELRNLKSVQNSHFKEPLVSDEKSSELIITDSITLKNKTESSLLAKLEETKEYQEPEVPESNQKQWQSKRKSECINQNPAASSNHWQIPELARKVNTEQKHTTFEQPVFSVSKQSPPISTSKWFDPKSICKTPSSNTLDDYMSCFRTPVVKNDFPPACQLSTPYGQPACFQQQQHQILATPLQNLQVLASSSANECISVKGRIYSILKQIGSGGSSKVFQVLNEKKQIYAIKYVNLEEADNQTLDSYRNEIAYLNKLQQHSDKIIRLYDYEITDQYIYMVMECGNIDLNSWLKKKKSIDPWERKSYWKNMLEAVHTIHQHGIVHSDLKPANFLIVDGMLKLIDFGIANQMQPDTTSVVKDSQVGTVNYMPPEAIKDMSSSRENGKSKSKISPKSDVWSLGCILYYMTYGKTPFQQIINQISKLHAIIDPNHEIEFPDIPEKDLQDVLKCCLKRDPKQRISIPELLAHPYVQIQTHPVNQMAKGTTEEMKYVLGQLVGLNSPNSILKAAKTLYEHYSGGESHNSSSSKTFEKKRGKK", "description": "as §1"}, "[7]": {"target": "MINK1 (Homo sapiens, UniProt Q8N4C8)", "description": "as §1"}, "[8]": {"target": "PIK3CB/PIK3R1 (p110 beta/p85 alpha) (Homo sapiens, UniProt P42338)", "sequence (P42338 whole entry)": "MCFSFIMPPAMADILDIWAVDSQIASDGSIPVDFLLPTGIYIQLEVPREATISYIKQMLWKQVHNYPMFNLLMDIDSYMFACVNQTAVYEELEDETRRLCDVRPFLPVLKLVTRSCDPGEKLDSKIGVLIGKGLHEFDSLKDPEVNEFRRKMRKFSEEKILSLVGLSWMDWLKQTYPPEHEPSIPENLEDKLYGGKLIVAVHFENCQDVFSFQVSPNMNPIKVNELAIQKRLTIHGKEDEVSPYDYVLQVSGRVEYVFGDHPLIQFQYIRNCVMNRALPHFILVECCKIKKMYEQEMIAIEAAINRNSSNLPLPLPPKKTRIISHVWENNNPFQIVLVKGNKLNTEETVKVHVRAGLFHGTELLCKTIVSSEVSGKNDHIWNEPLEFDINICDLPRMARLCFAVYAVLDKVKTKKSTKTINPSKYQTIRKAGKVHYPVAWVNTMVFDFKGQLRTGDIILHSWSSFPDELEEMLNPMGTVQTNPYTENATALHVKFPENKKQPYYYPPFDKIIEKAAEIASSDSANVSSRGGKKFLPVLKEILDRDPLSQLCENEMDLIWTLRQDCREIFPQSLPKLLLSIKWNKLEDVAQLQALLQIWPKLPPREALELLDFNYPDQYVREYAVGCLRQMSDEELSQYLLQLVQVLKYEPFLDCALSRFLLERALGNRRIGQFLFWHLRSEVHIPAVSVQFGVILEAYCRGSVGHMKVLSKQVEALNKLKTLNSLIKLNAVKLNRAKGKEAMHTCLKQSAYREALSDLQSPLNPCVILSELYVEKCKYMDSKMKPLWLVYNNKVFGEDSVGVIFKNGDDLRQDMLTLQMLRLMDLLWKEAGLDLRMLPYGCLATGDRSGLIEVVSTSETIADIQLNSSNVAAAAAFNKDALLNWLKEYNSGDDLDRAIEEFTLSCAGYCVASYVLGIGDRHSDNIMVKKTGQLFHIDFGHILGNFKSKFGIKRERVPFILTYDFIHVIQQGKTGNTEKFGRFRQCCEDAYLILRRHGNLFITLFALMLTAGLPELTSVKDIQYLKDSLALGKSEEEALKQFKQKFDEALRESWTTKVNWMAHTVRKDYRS", "sequence (P27986 whole entry partner)": "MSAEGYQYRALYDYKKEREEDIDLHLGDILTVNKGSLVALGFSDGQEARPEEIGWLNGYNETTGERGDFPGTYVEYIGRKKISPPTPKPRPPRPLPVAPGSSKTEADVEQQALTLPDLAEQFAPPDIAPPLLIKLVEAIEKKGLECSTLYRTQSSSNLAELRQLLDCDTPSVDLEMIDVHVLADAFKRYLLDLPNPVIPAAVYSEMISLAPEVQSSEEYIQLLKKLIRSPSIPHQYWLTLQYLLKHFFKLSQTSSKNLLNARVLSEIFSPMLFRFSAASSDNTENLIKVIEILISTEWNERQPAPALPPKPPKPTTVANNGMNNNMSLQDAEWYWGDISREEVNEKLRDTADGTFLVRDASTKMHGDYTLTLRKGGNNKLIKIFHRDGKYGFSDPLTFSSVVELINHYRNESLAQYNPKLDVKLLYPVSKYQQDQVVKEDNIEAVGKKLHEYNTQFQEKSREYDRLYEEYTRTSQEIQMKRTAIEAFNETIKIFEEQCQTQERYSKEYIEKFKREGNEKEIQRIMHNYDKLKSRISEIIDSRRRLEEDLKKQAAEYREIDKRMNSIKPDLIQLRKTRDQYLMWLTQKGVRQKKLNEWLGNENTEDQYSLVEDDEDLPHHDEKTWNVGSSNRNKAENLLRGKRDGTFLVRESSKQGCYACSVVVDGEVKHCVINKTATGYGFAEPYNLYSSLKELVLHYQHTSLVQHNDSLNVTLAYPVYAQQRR", "description": "as §1"}, "[9]": {"target": "LCK (Homo sapiens, UniProt P06239)", "sequence (P06239 whole entry)": "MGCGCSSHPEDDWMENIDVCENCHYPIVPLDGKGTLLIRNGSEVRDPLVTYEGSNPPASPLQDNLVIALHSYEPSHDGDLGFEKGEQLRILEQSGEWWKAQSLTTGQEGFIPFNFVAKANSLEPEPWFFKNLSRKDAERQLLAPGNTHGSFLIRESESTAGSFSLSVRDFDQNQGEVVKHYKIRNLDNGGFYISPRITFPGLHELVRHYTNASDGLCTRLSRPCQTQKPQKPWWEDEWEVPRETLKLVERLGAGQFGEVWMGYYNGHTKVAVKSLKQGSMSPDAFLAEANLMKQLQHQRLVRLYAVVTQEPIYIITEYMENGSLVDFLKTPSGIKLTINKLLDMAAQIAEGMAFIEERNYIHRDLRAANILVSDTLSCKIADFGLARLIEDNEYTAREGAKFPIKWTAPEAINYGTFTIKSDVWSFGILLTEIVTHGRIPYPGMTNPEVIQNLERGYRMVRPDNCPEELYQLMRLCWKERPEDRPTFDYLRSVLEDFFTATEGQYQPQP", "description": "as §1"}, "[10]": {"target": "LYN A (Homo sapiens, UniProt P07948)", "sequence (P07948 whole entry)": "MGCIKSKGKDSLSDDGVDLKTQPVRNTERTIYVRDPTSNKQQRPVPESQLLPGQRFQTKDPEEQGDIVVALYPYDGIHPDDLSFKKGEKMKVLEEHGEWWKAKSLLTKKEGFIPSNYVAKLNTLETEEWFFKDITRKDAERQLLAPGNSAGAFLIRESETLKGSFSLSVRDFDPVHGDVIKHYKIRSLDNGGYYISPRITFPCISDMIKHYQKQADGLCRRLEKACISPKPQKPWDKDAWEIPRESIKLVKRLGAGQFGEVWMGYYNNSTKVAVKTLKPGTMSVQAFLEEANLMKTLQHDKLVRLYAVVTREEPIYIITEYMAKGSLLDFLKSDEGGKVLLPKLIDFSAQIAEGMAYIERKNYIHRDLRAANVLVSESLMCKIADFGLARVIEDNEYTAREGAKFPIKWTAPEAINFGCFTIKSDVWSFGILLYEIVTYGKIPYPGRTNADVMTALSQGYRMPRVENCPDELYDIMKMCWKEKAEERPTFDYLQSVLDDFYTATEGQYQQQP", "description": "as §1"}, "[11]": {"target": "PIK3CA/PIK3R1 (p110a/p85a) (Homo sapiens, UniProt P42336)", "sequence (P42336 whole entry)": "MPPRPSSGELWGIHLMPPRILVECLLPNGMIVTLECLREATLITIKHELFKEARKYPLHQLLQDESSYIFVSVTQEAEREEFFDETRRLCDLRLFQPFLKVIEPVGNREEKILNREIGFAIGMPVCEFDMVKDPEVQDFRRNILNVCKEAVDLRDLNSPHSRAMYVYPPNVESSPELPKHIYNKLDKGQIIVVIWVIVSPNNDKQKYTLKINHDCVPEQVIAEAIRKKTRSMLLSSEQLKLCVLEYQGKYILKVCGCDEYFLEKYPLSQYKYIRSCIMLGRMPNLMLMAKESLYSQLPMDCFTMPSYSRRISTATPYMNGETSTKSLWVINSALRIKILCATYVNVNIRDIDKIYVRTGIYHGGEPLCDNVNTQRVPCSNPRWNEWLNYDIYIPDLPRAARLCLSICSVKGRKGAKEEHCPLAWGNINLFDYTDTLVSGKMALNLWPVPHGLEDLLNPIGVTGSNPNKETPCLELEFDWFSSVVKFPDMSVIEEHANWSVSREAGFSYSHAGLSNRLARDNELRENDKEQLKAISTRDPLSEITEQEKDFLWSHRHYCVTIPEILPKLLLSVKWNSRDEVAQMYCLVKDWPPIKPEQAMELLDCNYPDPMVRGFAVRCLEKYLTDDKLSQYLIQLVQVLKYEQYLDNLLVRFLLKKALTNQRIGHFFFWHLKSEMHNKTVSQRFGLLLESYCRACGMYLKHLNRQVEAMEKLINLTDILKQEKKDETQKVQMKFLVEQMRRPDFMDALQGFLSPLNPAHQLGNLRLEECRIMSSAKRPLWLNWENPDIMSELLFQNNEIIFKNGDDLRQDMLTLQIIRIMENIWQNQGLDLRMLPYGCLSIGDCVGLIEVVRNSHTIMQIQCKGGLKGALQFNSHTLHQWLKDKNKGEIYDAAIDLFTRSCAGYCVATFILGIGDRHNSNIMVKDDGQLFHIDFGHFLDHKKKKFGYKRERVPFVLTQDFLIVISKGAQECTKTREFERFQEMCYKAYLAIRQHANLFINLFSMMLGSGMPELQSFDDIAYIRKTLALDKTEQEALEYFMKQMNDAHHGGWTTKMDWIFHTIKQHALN", "sequence (P27986 whole entry partner)": "as the sequence (P27986 whole entry partner) above", "details": "for Inhibition at 1 µM (%): PIK3CA/PIK3R1 (p110 alpha/p85 alpha), Adapta, ATP Km app", "description": "as §1"}, "[12]": {"details": "1 h, 1 μM WEL028, 1 h preincubation"}},
  "note": "Where “and” joins values, the source holds several entries; their conditions need not be identical. Equal entries are not always repeated. Where two headings read alike, the source gives them in different places.",
  "data": [
    {"smiles": "C#CCOc1ccc(Nc2ncc(Cl)c(Nc3ccccc3NC(=O)C=C)n2)c(OC)c1", "note": "[Compound 6]", "values": [
      {"measurement": "inhibition at 1 µM", "setting": "[1]; [12]", "value": 19, "unit": "%"},
      {"measurement": "Inhibition at 1 µM (%)", "setting": "[1]; MAPK3 (ERK1), 1 µM, ZLYTE, ATP Km app, listed as WEL028, 1 µM", "value": 14, "unit": "%"},
      {"measurement": "inhibition at 1 µM", "setting": "[1]; read-out: Inhibition at 1 µM (%), MAPK3 (ERK1), 1 µM, ZLYTE, ATP Km app", "value": 23, "unit": "%"},
      {"measurement": "inhibition at 1 µM", "setting": "[2]; [12]", "value": 6, "unit": "%"},
      {"measurement": "Inhibition at 1 µM (%)", "setting": "[2]; NEK1, 1 µM, ZLYTE, ATP Km app", "value": 12, "unit": "%"},
      {"measurement": "inhibition at 1 µM", "setting": "[3]; [12]", "value": 3, "unit": "%"},
      {"measurement": "Inhibition at 1 µM (%)", "setting": "[3]; DCAMKL2 (DCK2), 1 µM, ZLYTE, ATP Km app, listed as WEL028, 1 µM", "value": 2, "unit": "%"},
      {"measurement": "inhibition at 1 µM", "setting": "[3]; read-out: Inhibition at 1 µM (%), DCAMKL2 (DCK2), 1 µM, ZLYTE, ATP Km app", "value": 4, "unit": "%"},
      {"measurement": "Inhibition (%)", "setting": "[4]", "value": 0, "unit": "%"},
      {"measurement": "inhibition at 1 µM", "setting": "[5]; [12]", "value": 6, "unit": "%"},
      {"measurement": "Inhibition at 1 µM (%)", "setting": "[5]; DNA-PK, 1 µM, ZLYTE, ATP Km app, listed as WEL028, 1 µM", "value": 8, "unit": "%"},
      {"measurement": "inhibition at 1 µM", "setting": "[5]; read-out: Inhibition at 1 µM (%), DNA-PK, 1 µM, ZLYTE, ATP Km app", "value": 4, "unit": "%"},
      {"measurement": "IC50", "setting": "[6]", "value": 631, "unit": "nM"},
      {"measurement": "Inhibition at 1 µM (%)", "setting": "[6]; 1 µM, LanthaScreen Binding, listed as WEL028, 1 µM", "value": 76, "unit": "%"},
      {"measurement": "inhibition at 1 µM", "setting": "[6]; [12]", "value": 77, "unit": "%"},
      {"measurement": "Apparent fold selectivity", "setting": "[6]; IC50 on that kinase divided by IC50 on FES^S700C", "value": 152, "unit": "fold"},
      {"measurement": "inhibition at 1 µM", "setting": "[6]; read-out: Inhibition at 1 µM (%), 1 µM, LanthaScreen Binding", "value": 77, "unit": "%"},
      {"measurement": "inhibition at 1 µM", "setting": "[7]; [12]", "value": 20, "unit": "%"},
      {"measurement": "Inhibition at 1 µM (%)", "setting": "[7]; MINK1, 1 µM, ZLYTE, ATP Km app, listed as WEL028, 1 µM", "value": 21, "unit": "%"},
      {"measurement": "inhibition at 1 µM", "setting": "[7]; read-out: Inhibition at 1 µM (%), MINK1, 1 µM, ZLYTE, ATP Km app", "value": 19, "unit": "%"},
      {"measurement": "inhibition at 1 µM", "setting": "[8]; [12]", "value": -8, "unit": "%"},
      {"measurement": "Inhibition at 1 µM (%)", "setting": "[8]; PIK3CB/PIK3R1 (p110 beta/p85 alpha), 1 µM, Adapta, ATP Km app, listed as WEL028, 1 µM", "value": "-10% and -7%"},
      {"measurement": "inhibition at 1 µM", "setting": "[9]; [12]", "value": 5, "unit": "%"},
      {"measurement": "Inhibition at 1 µM (%)", "setting": "[9]; LCK, 1 µM, ZLYTE, ATP Km app, listed as WEL028, 1 µM", "value": 6, "unit": "%"},
      {"measurement": "inhibition at 1 µM", "setting": "[9]; read-out: Inhibition at 1 µM (%), LCK, 1 µM, ZLYTE, ATP Km app", "value": 4, "unit": "%"},
      {"measurement": "inhibition at 1 µM", "setting": "[10]; [12]", "value": 5, "unit": "%"},
      {"measurement": "Inhibition at 1 µM (%)", "setting": "[10]; LYN A, 1 µM, ZLYTE, ATP Km app, listed as WEL028, 1 µM", "value": 6, "unit": "%"},
      {"measurement": "inhibition at 1 µM", "setting": "[10]; read-out: Inhibition at 1 µM (%), LYN A, 1 µM, ZLYTE, ATP Km app", "value": 5, "unit": "%"},
      {"measurement": "inhibition at 1 µM", "setting": "[11]; [12]", "value": 14, "unit": "%"},
      {"measurement": "Inhibition at 1 µM (%)", "setting": "[11]", "value": 19, "unit": "%"},
      {"measurement": "Inhibition at 1 µM (%)", "setting": "[11]; listed as WEL028, 1 µM", "value": 9, "unit": "%"}
    ]}
  ]
}
